According to PMC4801399, “Impact of a CXCL12/CXCR4 Antagonist in Bleomycin (BLM) Induced Pulmonary Fibrosis and Carbon Tetrachloride (CCl4) Induced Hepatic Fibrosis in Mice” (PLoS ONE, 2016):

System: CCl4-induced hepatic fibrosis
Experiment: CCl4-induced murine model of hepatic fibrosis
Type: in vivo, C57BL/6 mice
Description: Hepatic fibrosis was induced in eleven week old female C57BL/6 mice from JAX Labs. Animals were randomly divided into three groups: oil plus vehicle (PBS) control, CCl4 plus vehicle (PBS) control and CCl4 plus AMD070. As some animals were euthanized prior to study completion because they had reached a humane endpoint, final group numbers were n = 9 for oil plus vehicle (PBS) control, n = 6 for CCl4 plus vehicle (PBS) control and n = 7 for CCl4 plus AMD070 groups. […] Starting one day prior to the initial CCl4 treatment (day -1), dosing with either AMD070 reconstituted in PBS (50 mg/kg) or PBS vehicle control (10 mL/kg) was administered IP and continued 5 days/week for 4 weeks. Specifically, AMD070 or PBS treatments were not performed on the 2 days/week on which animals were given CCl4 (or olive oil vehicle control). One day after the last AMD070 or PBS treatment, animals were euthanized with CO2.
Livers were perfused with PBS then 10% formalin and the left top lobe preserved in 10% neutral buffer formalin (NBF) for a week. The fixed liver was embedded in paraffin, six cross sections at 500 μm apart generated and stained with Picrosirius Red. For quantitation of percent hepatic fibrosis, fibrotic area (Picrosirius Red) was divided by total liver area and multiplying by 100. Three histology slides/animal were analyzed. The three slides corresponded to one slide from each of the alternative six cross sections. These analyses were performed with Olympus cellSens and the analyst was blinded to sample identity.
The top right lobe of livers were homogenized in 1 mL of Trizol (Invitrogen) and flash frozen in dry ice and stored in -80°C for RNA isolation to perform RT-qPCR. Total RNA was isolated and cDNA prepared using the High Capacity cDNA Reverse Transcription kit according to the manufacturer’s instructions (Life Technologies). RT-qPCR was carried out as previously described using the standard curve method. The following primer/probe sets were used to detect: Acta2 (IDT Assay–N007392.1), Probe- 5’-/56-FAM/TTACAGAGC/ZEN/CCAGAGCCATTGTCG/3IABkFQ/3’, Primer 1–5’-[…]-3’, Primer 2: 5’-[…]-3’; Col1a1 (Life Technologies custom primer/probe mix), primer 1–5’-[…], primer 2–5’- […], probe- 5’-FAM-ACACCGGAACTTGGG-MGBNFQ; Tbp (Life Technologies custom primer/probe mix), Primer 1–5’-[…], Primer 2–5’-TGGCTCCTGTGCACACCAT, Probe- 5’-FAM-CGTTGATTTTCAGTTCTGG-MGBNFQ; Gapdh (IDT Assay–Mm.PT.39a.1), probe- 5’-/56-FAM/TGCAAATGG/ZEN/CAGCCCTGGTG/3IABkFQ/3’, primer 1–5’-AATGGTGAAGGTCGGTGTG-3’, primer 2–5’-[…]-3’.
Five μL of serum was used with the AST Activity Assay Kit (Sigma MAK055) as per manufacturer’s instructions to determine serum AST levels.

[1] = RT-qPCR relative to Gapdh and Tbp, CCl4 plus AMD070 vs CCl4 plus PBS

For `NCCCCN(Cc1nc2ccccc2[nH]1)[C@H]1CCCc2cccnc21` [AMD070], the “percent liver fibrosis (Picrosirius red staining)” value (CCl4 plus AMD070 50 mg/kg IP 5 days/week for 4 weeks, group average, CCl4 plus PBS 3.2%) was 3.6%, the “mortality rate between groups” value (CCl4 plus AMD070 50 mg/kg IP vs control groups) was “no difference” and the “liver Acta2 (αSma) relative transcription level” value [1] was “not different”. The “liver Col1a1 relative transcription level” value [1] was “not different” and the “serum AST levels” value (after 4 weeks, CCl4 plus AMD070 vs CCl4 plus vehicle control) was “no difference”.
